Laboratory results taken from article PMC6120877, “Intriguing role of water in protein-ligand binding studied by neutron crystallography on trypsin complexes” (Nature Communications, 2018).

Assays:
[1] = molecular target: T1, bovine trypsin (Bos taurus, UniProt P00760); assay: Kinetic fluorescence enzyme inhibition assay, trypsin; format: biochemical; conditions: for Ki: fluorescence assay, D-Phe-Pro derivatives
T1 construct: purchased Worthington Biochemical Corporation LS003707
T1 sequence (P00760 24-246): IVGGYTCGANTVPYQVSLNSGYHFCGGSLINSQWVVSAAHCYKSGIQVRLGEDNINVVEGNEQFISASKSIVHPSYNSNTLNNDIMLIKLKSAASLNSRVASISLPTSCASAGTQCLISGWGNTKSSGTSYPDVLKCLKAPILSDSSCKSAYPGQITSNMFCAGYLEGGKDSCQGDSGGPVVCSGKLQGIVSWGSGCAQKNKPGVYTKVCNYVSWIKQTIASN
Procedure: Following the same approach as used in an earlier study, kinetic data were obtained in black 96-well plates using a Fluoroskan Ascent fluorometer (Thermo Fisher Scientific, Vantaa/Finland; λex = 355 nm, λem = 460 nm). The assay was performed at room temperature in a buffer composed of 43 mM Tris pH 7.8, 132 mM NaCl and 0.0086 % (w/v) PEG 8000. The final trypsin concentration was 65 pM. […] The D-Phe-Pro analogs were dissolved in DMSO and further diluted in buffer to yield a final DMSO concentration in the assay well below 1% (v/v). Mes-d-Arg-Gly-Arg-AMC (Mes = mesyl; AMC = […]) available from a previous study was used as the substrate. […] The uninhibited trypsin-catalyzed reaction was investigated in parallel at the three substrate concentrations 6.3, 12.5, and 25 µM. […] For this purpose, a non-linear fit to the Michaelis-Menten equation modified for reversible competitive inhibitors was used.

[2] = molecular target: T2, bovine β-trypsin (Bos taurus, UniProt P00760); assay: Direct ITC titration, trypsin; format: binding; conditions: for number of protons transferred from the buffer onto trypsin upon complex formation (slope of interpolation function): ∆H° vs. buffer ionization enthalpy, three buffers
T2 construct: dialyzing a solution of bovine β-trypsin (Sigma Aldrich, product number T8003); purchased Sigma Aldrich T8003
T2 sequence (P00760 24-246): T1 sequence (P00760 24-246)
Procedure: To determine dissociation constants for trypsin:inhibitor complexes, two different isothermal titration calorimetry (ITC) titration protocols were used. […] Protein samples were prepared by dialyzing a solution of bovine β-trypsin (Sigma Aldrich, product number T8003) against a buffer composed of 80 mM NaCl, 10 mM CaCl2, 0.1 % (w/v) PEG 8000 and 100 mM HEPES, Tricine or Tris at a pH of 7.6 and a temperature of 4 °C while ligands were dissolved in buffer. […] Titrations were performed in three different buffer systems to enable the correction for any proton transfer occurring between buffer and protein upon complex formation. For this purpose, the obtained ∆H° values were plotted against the ionization enthalpy of the used buffer yielding a buffer-corrected enthalpy as the intercept (for more details see footnote b in Supplementary Tables 2 and 3). […] Applying the same protocol and data analysis scheme as used in an earlier study, ITC titrations were performed on an ITC200 device (GE Healthcare) at 25 °C with a reference power of 5 µcal s^−1. The ITC protocol consisted of an initial 0.3 µl volume injection and of 20–25 injections with a volume between 1.5 and 1.8 µl separated by a 220 s time interval. For data analysis, the method described by Turnbull et al. was applied.

[3] = molecular target: T2, bovine β-trypsin; assay: Displacement ITC titration, trypsin (displacement ligand compound 2); format: binding; conditions: HEPES
Procedure: Sample preparations, measurements and data analyses were performed using the same approach as for our earlier study, which is described in the following. […] ITC data were collected using an ITC200 device (GE Healthcare) at 25 °C with a reference power of 5 µcal s^−1. An initial 0.3 µl volume injection was followed by 19 injections with a volume of 1.9 µl.

[4] = molecular target: T3, human thrombin (Homo sapiens, UniProt P00734); assay: Kinetic fluorescence enzyme inhibition assay, thrombin; format: biochemical; conditions: D-Phe-Pro derivatives
T3 construct: The analogous assay was applied to human thrombin, which was kindly provided by CSL Behring; purchased CSL Behring

[5] = buffer-corrected (average over three buffers), 3% (v/v) DMSO
[6] = buffer-corrected (difference between ∆G° and ∆H°), 3% (v/v) DMSO
[7] = buffer-corrected (intercept at ionization enthalpy 0), 3% (v/v) DMSO
[8] = direct titration, HEPES, 3% (v/v) DMSO
[9] = direct titration, Tricine, 3% (v/v) DMSO
[10] = direct titration, Tris, 3% (v/v) DMSO

Compound	Ki [1]	Kd [2, 5]	∆G° [2, 5]	–T∆S° [2, 6]	∆H° [2, 7]	Kd [2, 8]	–T∆S° [2, 8]	∆G° [2, 8]	∆H° [2, 8]	Kd [2, 9]	–T∆S° [2, 9]	∆G° [2, 9]	∆H° [2, 9]	Kd [2, 10]	–T∆S° [2, 10]	∆G° [2, 10]	∆H° [2, 10]	number of protons transferred from the buffer onto trypsin upon complex formation (slope of interpolation function) ([2]; 3% (v/v) DMSO)	further results
N=C(N)c1ccccc1 [Benzamidine, benzamidine]																			stronger inhibition of trypsin than N-amidinopiperidine ([1]; benzamidine vs. N-amidinopiperidine): about 10 fold; –T∆S° ([2]; direct titration, HEPES): -3.59 ± 0.072 kcal/mol; ∆G° ([2]; direct titration, HEPES): -6.38 ± 0.072 kcal/mol; ∆H° ([2]; direct titration, HEPES): -2.8 ± 0.024 kcal/mol; –T∆S° ([2]; direct titration, Tricine): -2.53 ± 0.14 kcal/mol; ∆G° ([2]; direct titration, Tricine): -6.33 ± 0.0096 kcal/mol; ∆H° ([2]; direct titration, Tricine): -3.8 ± 0.14 kcal/mol; –T∆S° ([2]; direct titration, Tris): -1.58 ± 0.096 kcal/mol; ∆G° ([2]; direct titration, Tris): -6.33 ± 0.0072 kcal/mol; ∆H° ([2]; direct titration, Tris): -4.76 ± 0.096 kcal/mol; ∆G° ([2]; direct titration, buffer-corrected (average over three buffers)): -6.36 kcal/mol; –T∆S° ([2]; direct titration, buffer-corrected (difference between ∆G° and ∆H°)): -5.02 kcal/mol; ∆H° ([2]; direct titration, buffer-corrected (intercept at ionization enthalpy 0)): -1.34 kcal/mol; number of protons transferred from the buffer onto trypsin upon complex formation (slope of interpolation function) [2]: -0.31; –T∆S° [3]: -2.44 ± 0.22 kcal/mol; ∆G° [3]: -6.31 ± 0.14 kcal/mol; ∆H° [3]: -3.85 ± 0.17 kcal/mol
N=C(N)N1CCC(CNC(=O)[C@@H]2CCCN2C(=O)[C@H](N)Cc2ccccc2)CC1.O=C(O)C(F)(F)F.O=C(O)C(F)(F)F [Compound 1]	1.96 ± 0.264 µM	3.6 µM	-7.43 kcal/mol	-2.22 kcal/mol	-5.21 kcal/mol	3.7 ± 0.2 µM	-2.77 ± 0.072 kcal/mol	-7.41 ± 0.048 kcal/mol	-4.64 ± 0.072 kcal/mol	3.3 ± 0.3 µM	-3.15 ± 0.12 kcal/mol	-7.48 ± 0.048 kcal/mol	-4.33 ± 0.12 kcal/mol	3.7 ± 0.6 µM	-3.51 ± 0.17 kcal/mol	-7.41 ± 0.096 kcal/mol	-3.9 ± 0.14 kcal/mol	0.12	Ki [4]: 0.00451 ± 0.00025 µM
N=C(N)c1ccc(CNC(=O)[C@@H]2CCCN2C(=O)[C@H](N)Cc2ccccc2)cc1 [Compound 2]	0.0152 ± 0.0002 µM	0.034 µM	-10.2 kcal/mol	-1.05 kcal/mol	-9.13 kcal/mol	0.038 ± 0.007 µM	-1.65 ± 0.19 kcal/mol	-10.1 ± 0.096 kcal/mol	-8.48 ± 0.17 kcal/mol	0.034 ± 0.003 µM	-2.63 ± 0.096 kcal/mol	-10.2 ± 0.048 kcal/mol	-7.55 ± 0.096 kcal/mol	0.031 ± 0.005 µM	-2.87 ± 0.14 kcal/mol	-10.2 ± 0.096 kcal/mol	-7.39 ± 0.096 kcal/mol	0.17	
